Assay: Stability in DMSO / water (HPLC)
Type: physicochemical
Method: Next, the stability of 3,5-DCQA was evaluated in various concentrations of DMSO. 5.2 mg 3,5-DCQA was dissolved in 0.208 ml DMSO (conc.=25 mg/ml), and then diluted with water as 40% DMSO in water solution, 20% DMSO in water solution, and 10% DMSO in water solution, respectively. All samples were subjected on HPLC in 0 Day, 1 Day, 2 Day and 4 Day, and the Area % of 3,5-DCQA was calculated.
In the presence of water, 3,5-DCQA was converted into 4,5-dicaffeoylquinic acid (4,5-DCQA), as observed using HPLC. HPLC analysis of 3,5-DCQA in DMSO and H2O (conc.=2.5 mg/ml) at 0 day, 2 Day and 4 Day indicated a progressive degradation of 3,5-DCQA. By the forth day in 10% DMSO in H2OP, over 11% of 3,5-DCQA was changed into 4,5-DCQA.

**Q.** What does the source list for `O=C(/C=C/c1ccc(O)c(O)c1)OC1CC(O)(C(=O)O)CC(OC(=O)/C=C/c2ccc(O)c(O)c2)C1O` (stereo not shown) [CJ4-16-4, 3,5-di-O-caffeoylquinic acid]?
**A.** 3,5-DCQA changed into 4,5-DCQA (10% DMSO in H2O (2.5 mg/ml), fourth day): over 11%; Area % of 3,5-DCQA (HPLC) (10% DMSO in H2O, 0 Day): 97.25 Area %; Area % of 3,5-DCQA (HPLC) (10% DMSO in H2O, 1 Day): 93.60 Area %; Area % of 3,5-DCQA (HPLC) (10% DMSO in H2O, 2 Day): 89.50 Area %; Area % of 3,5-DCQA (HPLC) (10% DMSO in H2O, 4 Day): 86.01 Area %; Area % of 3,5-DCQA (HPLC) (20% DMSO in H2O, 1 Day): 94.56 Area %; Area % of 3,5-DCQA (HPLC) (20% DMSO in H2O, 2 Day): 91.91 Area %; Area % of 3,5-DCQA (HPLC) (20% DMSO in H2O, 4 Day): 89.08 Area %; Area % of 3,5-DCQA (HPLC) (40% DMSO in H2O, 1 Day): 96.33 Area %; Area % of 3,5-DCQA (HPLC) (40% DMSO in H2O, 2 Day): 94.72 Area %; Area % of 3,5-DCQA (HPLC) (40% DMSO in H2O, 4 Day): 93.90 Area %; Area % of 3,5-DCQA (HPLC) (100% DMSO (25 mg/ml), 0 Day): 97.28 Area %; Area % of 3,5-DCQA (HPLC) (100% DMSO (25 mg/ml), 1 Day): 97.34 Area %; Area % of 3,5-DCQA (HPLC) (100% DMSO (25 mg/ml), 2 Day): 97.15 Area %; Area % of 3,5-DCQA (HPLC) (100% DMSO (25 mg/ml), 4 Day): 97.09 Area %; degradation in 100% DMSO (in words) (100% DMSO, up to 4 Day): No statistically significant degradation
